These results are taken from patent US20190098891A1, “Compositions and Methods for Biopreservation” (Augusta University Research Institute, Inc., priority 2017, published 2019).

The test concerns mouse M II oocytes. As to the kind of experiment: Post-rehydration survival of mouse M II oocytes after fast or slow desiccation. Format: cell-based. From the text:
A phosphate-buffered saline (PBS) containing 0.4% bovine serum albumin (BSA) was used as a starting desiccation medium based on its simple composition that was preferable to not complicate the experimental outcome due to components of a complex desiccation medium. Further, the objective of these experiments was to test the effect of the desiccation duration without bringing specimen into a glassy state.
Slow and fast desiccation are can be achieved by adjusting several variables (e.g., temperature and flow rate of dry nitrogen gas, temperature of stage warmer, droplet size, etc.). Slow and fast desiccation of M II oocytes were achieved by changing the flow rate of dry nitrogen gas using a flowmeter (Gilmont Instruments) while performing the experiments at ambient temperature.
The fast protocol required approximately 9 minutes to desiccate a sample to a residual moisture content of 5% while the same residual moisture content was obtained in ca. 20 minutes in the case of slow desiccation. […]
The residual moisture content (% RM) of samples was determined gravimetrically using the following formula: […]

As to `OC[C@H]1O[C@H](O[C@H]2O[C@H](CO)[C@@H](O)[C@H](O)[C@H]2O)[C@H](O)[C@@H](O)[C@@H]1O` [trehalose], the desiccation tolerance result is listed as “improves the desiccation tolerance”.
